Laboratory results reported in patent US20130202657A1, “FOAMS OR PARTICLES FOR APPLICATIONS SUCH AS DRUG DELIVERY” (BASF SE, priority 2010, published 2013).

Experiments:
[1] = Solubility of APIs in PVPVA (thin layer dried on glass slide, optical microscopy); assay type: physicochemical; details: % by mass in PVPVA; bright-field and cross-polarized optical microscopy
Procedure: The effect of API loading on PVPVA foams was studied next. To make API-laden polymer foams, a model API was added to the polymer before foaming. Clotrimazole and cholesterol were used in this example as model APIs. PVPVA was loaded with the API at concentrations ranging from 0% by mass to 30% by mass, as described above. The solubility of APIs in PVPVA was first tested by dissolving both the API and the polymer in a solvent, then spreading a thin layer on a glass slide to dry. […] These crystals were visible under bright-field and cross-polarized optical microscopy. […] Solid solutions of clotrimazole were obtained at up to 20% loading.

[2] = at typical operating pressures and temperatures; cited from earlier work

CC(C)CCC[C@@H](C)[C@H]1CC[C@H]2[C@@H]3CC=C4C[C@@H](O)CC[C@]4(C)[C@H]3CC[C@]12C [cholesterol]
API loading in PVPVA at which crystals precipitate [1]: about 30% | solubility in CO2 [2]: about 2 g/l
